Data set [1] concerns the target T1, lysosomal β-galactosidase (Homo sapiens, UniProt P16278).
T1 sequence (P16278 29-677): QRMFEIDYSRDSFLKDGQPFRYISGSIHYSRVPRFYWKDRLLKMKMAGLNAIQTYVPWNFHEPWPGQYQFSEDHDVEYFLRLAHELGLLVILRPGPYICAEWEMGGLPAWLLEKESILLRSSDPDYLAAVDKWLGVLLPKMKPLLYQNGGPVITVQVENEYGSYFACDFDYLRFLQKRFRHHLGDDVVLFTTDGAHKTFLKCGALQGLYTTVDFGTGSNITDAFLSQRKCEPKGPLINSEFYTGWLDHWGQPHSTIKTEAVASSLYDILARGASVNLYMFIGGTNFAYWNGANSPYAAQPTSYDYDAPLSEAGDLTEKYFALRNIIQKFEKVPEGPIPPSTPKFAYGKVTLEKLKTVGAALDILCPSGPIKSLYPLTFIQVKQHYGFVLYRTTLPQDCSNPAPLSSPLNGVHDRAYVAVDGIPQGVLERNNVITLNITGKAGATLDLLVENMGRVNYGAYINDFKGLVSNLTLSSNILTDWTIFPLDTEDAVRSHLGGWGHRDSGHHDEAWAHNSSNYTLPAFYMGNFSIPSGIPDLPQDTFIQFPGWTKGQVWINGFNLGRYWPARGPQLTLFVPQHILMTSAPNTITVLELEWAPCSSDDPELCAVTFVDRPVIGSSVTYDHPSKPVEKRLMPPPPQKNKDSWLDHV
Briefly: In vitro hydrolysis of the fluorogenic substrate by fibroblast lysates. Type of data set: biochemical. The protocol:
The ability of 5 to serve as a fluorogenic substrate was tested using fibroblasts derived from patients with GM1 gangliosidosis, a hereditary deficiency of lysosomal β-galactosidase.

Data set [2] is described as follows: Fluorescence properties of Im-DCH and its galactoside. Type of data set: physicochemical. The settings on record: excitation at 365 nm, detection at 460 nm. The source says:
(§1) Two other advantages of the fluorophors of the present invention derive from their physical and optical properties: (1) The low pKa of the phenol in Im-DCH (pKa-5.6) allows the maximal fluoroscence (excitation at 385 nm, detection at 460 nm) to be generated at physiological pH values as well as the low pH conditions within lysosomes. The extremely low pKa of the excited state of Im-DCH (pKa*=0.5) permits strong fluorescence to be measured in solutions as acidic as pH 2-3. By proper choice of spectral parameters (excitation at 365 nm, detection at 460 nm), the fluorescence becomes essentially independent of pH, with a fluorescence intensity at pH 2 that is 60% of the maximum. Ratio measurements of fluorescence (emission at 460 nm with excitation at 365 and 385 nm) also provide an estimate of the pH at the site of enzymatic hydrolysis. (2) Shifts in both the absorption and emission spectra occur upon the hydrolysis of glycosides of Im-DCH to give free Im-DCH. This permits the detection of small amounts of enzymatic hydrolysis in the presence of a very large excess of substrate. For example, at 385 nm excitation and 460 nm detection, the ratio of fluoroescence of the hydrolysis product, Im-DCH, to intact Im-DCH-β-Gal is 620:1. […] It is then deacetylated intracellularly to generate the enzymatically active substrate.

The nature of data set [3]: pKa of the Im-DCH fluorophor (imidazole moiety, phenol, excited state). Type of data set: physicochemical.
From the text: This term refers to moderately basic amines that concentrate (via acid-base equilibria) in low pH organelles such as lysosomes. For Im-DCH in compounds 4 and 5, the N-alkyl imidazole moiety, with a pKa of approximately 7, serves this function. This lysosomotropic property accounts for a first important attribute of enzyme substrates based upon Im-DCH that is, concentration within lysosomes to ensure that sufficient substrate is concentrated within the lysosomes in order to yield a readily detectable fluorescent signal.
as §1

The target in data set [4] is T1, lysosomal β-galactosidase. Briefly: Loading and intracellular hydrolysis in intact human skin fibroblasts in culture (fluorescence scanning of 96-well plates, fluorescence microscopy). The format is cell-based. The protocol: Loading of Im-DCH-β-Gal(OAc)., 4, into human skin fibroblasts in culture was accomplished as follows. A 20 mM solution of 4 in ethanol was injected via syringe into McCoy's medium to give a 0.1 mM final concentration of fluorogenic substrate. The substrate was further dispersed in the medium by sonication with a W140 Sonifier (two 10 second pulses on power setting of 3). After incubation for 24 hours in serum-free McCoy's medium, cells were loaded with 4 by replacement of the medium with medium containing 0.1 mM substrate. Excess Im-DCH-β-Gal(OAc) may be removed by rinsing the cells, after which the cells may be further incubated in serum free McCoy's medium. […] Excitation (Xenon lamp) through a 360 nm bandpass filter with 10% transmittance at 310 and 385 nm. Emission through a chromatic beam splitter mirror that transmits fully above 405 nm plus a long pass filter with a transmittance of 1% at 408 nm and 10% at 412 nm. Enzymatic hydrolysis was followed by scanning of the loaded cells in a 96-well tissue culture plate with a Dynatech Microfluorometer. Quantitation of product formation was achieved by comparison of the fluorescence generated within individual wells with a standard curve that was obtained from known concentrations of the fluorescent product, 3.
Decreased activity was measured in GM1 cells (12-16% of normal) by fluorescence scanning of 96-well plates. […] In contrast, normal cells are nonfluorescent 24 hours after loading, having hydrolysed their substrate and released the fluorescent product into the media.

Data set [5] concerns β-galactosidase. Briefly: Cell-free systems that have β-galactosidase activity. The format is biochemical.

With `N#Cc1c(OCCCCn2ccnc2)ccc(O[C@@H]2O[C@H](CO)[C@H](O)[C@H](O)[C@H]2O)c1C#N` [Compound 5, β-D-galactopyranoside of 2,3-dicyano-4-[4-(1-imidazolyl)-butoxy]-phenol], the “hydrolysis activity in GM1 gangliosidosis lysates relative to normal” value in data set [1] (lysates from four GM1 gangliosidosis fibroblast lines) is on record as 0.3-5.3 % of normal activity. Further, in data set [1] (lysates from three normal fibroblast lines), the “hydrolysis by lysates from normal fibroblasts” value is on record as “hydrolysed rapidly”.
Consider `Cl.N#Cc1c(O)ccc(OCCCCn2ccnc2)c1C#N` [Compound 3, 2,3-dicyano-4-[4-(1-imidazolyl)-butoxy]-phenol hydrochloride salt], for which, in data set [2], the “fluorescence intensity at pH 2 relative to the maximum” value came to 60%. In addition, the “pKa of the phenol” value in data set [3] is 5.6. Moreover, in data set [3] (excited state), the “pKa of the excited state (pKa*)” value was 0.5. Besides, the “pKa of the N-alkyl imidazole moiety” value in data set [3] (lysosomotropic amine moiety of Im-DCH in compounds 4 and 5) is given as “approximately 7”.
Turning to `CC(=O)OC[C@H]1O[C@@H](Oc2ccc(OCCCCn3ccnc3)c(C#N)c2C#N)[C@H](OC(C)=O)[C@@H](OC(C)=O)[C@H]1OC(C)=O` [Compound 4, β-D-galactopyranoside of 2,3-dicyano-4-[4-(1-imidazolyl)-butoxy]-phenol-2,3,4,6-tetra-O-acetate], the “hydrolysis activity in intact GM1 cells relative to normal” value in data set [4] (GM1 cells, fluorescence scanning of 96-well plates) is recorded as 12-16 % of normal. In data set [4] (GM1 fibroblasts, fluorescence microscopy), the “intracellular localization of fluorescence in GM1 fibroblasts” value is listed as “initial perinuclear clustering followed within 24 hours by sequestration into vacuoles”. Besides, the “specificity of the impaired hydrolysis in GM1 gangliosidosis lines” value in data set [4] (comparison with cell lines expressing other lysosomal storage disorders) is “specific for their lysosomal β-galactosidase deficiency”. Further, in data set [4] (human skin fibroblasts, 0.1 mM substrate), the “uptake by intact fibroblasts” value was “taken up by intact fibroblasts”. In addition, the “fluorescence of normal cells after loading” value in data set [4] (normal fibroblasts, 24 hours after loading) is listed as “nonfluorescent”. The “activity as a substrate in cell-free systems” value in data set [5] is “inactive”.

Source of the values: patent US5089392A, “Fluorogenic substrates for measurement of lysosomal enzyme activities within intact cells” (The United States of America as represented by of the …, priority 1990, dated 1992).
